The text below walks through data of patent US20230212124A1, “SMALL-MOLECULE INHIBITORS OF THE FRS2-FGFR INTERACTION” (UNIVERSITÄT ZÜRICH, priority 2020, published 2023).

Series [1] can be described thus: In vitro ADMET table: potency. It is filed as cell-based. The text has this:
(§1) FIG. 16 Table showing the in vitro absorption, distribution, metabolism, elimination and toxicity (ADMET) properties of F3.14.

Series [2] relates to FGFR-driven cancer cell lines. As to the kind of experiment: Cell titer glo assay. It is filed as cell-based. Conditions: all the FGFR-driven cancer cell lines tested. As to the method: The metabolic activity and the proliferation of the cells were determined using the Cell Titer glo assay from Promega according to the manufacturer's instructions. In brief, 250 cells/100 μl/per well (for up to 72 h incubation) were seeded in Greiner Bio-One p-clear 384 well plates (655090, Greiner Bio-One) and incubated overnight at 37° C. The old media was then replaced with fresh serum-free media and the cells were treated with BGJ398 or F3.14 till the desired time point. Following appropriate incubation for each timepoint, 10 μl of the Cell titer glo reagent was added to each well (final concentration of cell titer glo reagent per well is 1:10) and incubated at 37° C. for 30 minutes. The luminescence was then measured with a signal integration time of 0.5 to 1 second per well.
On the technique in general: ATP-based viability assays read luminescence as a measure of living cells.

A short description of series [3]: In vitro ADMET: semi-thermodynamic solubility. It is filed as physicochemical. Conditions: aqueous solutions.
From the text: as §1

The nature of series [4]: In vitro ADMET: toxicity (MTT). It is filed as cell-based.
From the text: as §1

Series [5] in a line: In vitro ADMET: metabolic stability (intrinsic clearance, t½). It is filed as in vitro ADME.
From the text: as §1

The target of the next series is T1, FRS2 (Homo sapiens, UniProt Q8WU20).
T1 construct: 6xHis
T1 sequence (Q8WU20 1-508): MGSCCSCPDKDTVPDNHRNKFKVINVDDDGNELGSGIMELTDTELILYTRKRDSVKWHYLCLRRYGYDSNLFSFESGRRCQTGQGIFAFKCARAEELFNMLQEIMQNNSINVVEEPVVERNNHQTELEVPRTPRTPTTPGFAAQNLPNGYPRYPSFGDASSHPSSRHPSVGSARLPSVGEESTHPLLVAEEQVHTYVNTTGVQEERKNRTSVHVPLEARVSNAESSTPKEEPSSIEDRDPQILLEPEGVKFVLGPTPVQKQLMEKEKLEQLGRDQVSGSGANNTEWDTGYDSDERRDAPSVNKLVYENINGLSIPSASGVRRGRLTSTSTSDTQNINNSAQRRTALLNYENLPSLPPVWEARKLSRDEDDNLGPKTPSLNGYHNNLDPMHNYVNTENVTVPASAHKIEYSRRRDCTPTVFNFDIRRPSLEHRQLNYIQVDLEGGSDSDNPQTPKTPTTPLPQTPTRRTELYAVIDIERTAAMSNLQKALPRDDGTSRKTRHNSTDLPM
As to the kind of experiment: Biophysical binding assays (nanoDSF, MST, NMR). The conditions noted are these: MST and NMR analysis. The protocol: Nano Differential Scanning Fluorimetry (nanoDSF)
Purified FRS2 protein tagged with 6× Histidine residues and Guanine nucleotide-binding protein subunit beta (GB1) was diluted in the protein buffer (100 mM sodium phosphate, 50 mM NaCl, 0.5 mM EDTA, 50 mM arginine, 1 mM TCEP, pH 7.0) to final concentration of 30 μM. The compounds were dissolved in 100% at 50 or 100 mM and further diluted to 1 mM with a final concentration of 100% DMSO. Compound and protein were mixed at 1:1 ration yielding final concentrations of 15 μM and 500 μM for the compounds. The mixture was incubated at room temperature for 15 minutes before measurement. The measurement was performed on a Prometheus system in high sensitivity capillaries. Samples were subjected to a temperature gradient of 20 to 95° C. with 1° C./min intervals.
Microscale Thermophoresis (MST)
Purified FRS2 protein tagged with 6× Histidine residues and Guanine nucleotide-binding protein subunit beta (GB1) was labelled with 2nd generation BLUE-NHS dye. The protein was labelled at a final concentration of 20 µM with 60 μM dye. The labelling was performed in the protein buffer without arginine supplementation. Arginine was re-buffered to protein's buffer post-labelling. The compounds were dissolved in 100% at 50 or 100 mM and further diluted to 1 mM with a final concentration of 100% DMSO. […] The interaction was measured in two independent duplicates.
On the technique in general: In DSF a fluorescence change marks the thermal transition of the protein.

The test system of series [6] is FGFR-driven cancer cell lines. As to the kind of experiment: Spheroid invasion assay. It is filed as cell-based. The conditions noted are these: all the FGFR-driven cancer cell lines tested. The protocol: Spheroid Invasion Assay (S/A) and Automated Cell Dissemination Counter (aCDc)
1000 cells/100 μl per well were seeded in cell-repellent 96 well microplate (650790, Greiner Bio-one). The cells were incubated at 37° C. overnight to form spheroids. 70 μl of the medium were removed from each well, and remaining medium with spheroid overlaid with 2.5% bovine collagen 1. Following the polymerization of collagen, fresh medium was added to the cells and treated with growth factors and/or with inhibitors. The cells were allowed to invade the collagen matrix for 24 h, after which they were fixed with 4% PFA and stained with Hoechst. Images were acquired on an Axio Observer 2 mot plus fluorescence microscope (Zeiss, Munic, Germany) using a 5×objective. Cell invasion is determined as the average of the distance invaded by the cells from the centre of the spheroid as determined using automated cell dissemination counter (aCDc) with our cell dissemination counter software aSDlcs (Kumar et al., Sci Rep 5, 15338 (2015)).

The next series can be described thus: In vivo pharmacokinetics. The conditions noted are these: mice, intravenous. As to the method: 3 Healthy non-SCID mice were intravenously treated with F3.14—Blood samples were collected at 2, 4, 6, 8 and 24 hours after treatment. Serum from the collected blood samples were isolated and the concentration of F3.14 in the serum was measure to determine the intrinsic clearance of F3.14.

Another series has as its system FGF signaling pathway. As to the kind of experiment: Immunoblotting / pathway analysis. It is filed as cell-based. As to the method: (§2) Cancer cells were treated with bFGF (100 ng/ml) and/or with compounds and lysed using Radioimmunoprecipitation assay (RIPA) buffer. RIPA buffer lysates were resolved by SDS-PAGE and transferred to a nitrocellulose membrane using a transfer apparatus according to the manufacturer's instructions (Bio-Rad). Membranes were probed with primary antibodies against phospho-FRS2, FRS2, ERK1/2, phospho-ERK1/2, AKT, phosphor-AKT, phospho-PKC and tubulin. HRP-linked secondary antibodies (1:5000) were used to detect the primary antibodies. Chemiluminescence detection was performed using ChemiDoc Touch Gel and Western Blot imaging system (BioRad).
as §2, with “RIPA” for “Cancer cells were treated with bFGF (100 ng/ml) and/or with compounds and lysed using Radioimmunoprecipitation assay (RIPA) buffer. RIPA”, “buffer FGFR-driven cell” for “buffer”, “phospho-AKT,” for “phosphor-AKT,”, “(BioRad). Integrated density of Immuno-reactive bands was quantified using Adobe Photoshop CS5.” for “(BioRad).”
(In general: In western blotting, separated proteins are transferred to a membrane and probed.)

Series [7] in a line: In vitro ADMET: permeability (efflux ratio). It is filed as in vitro ADME.
From the text: as §1

For `CC(C)C[C@@H](CO)NCc1cc(O)c2cc(F)ccc2n1` [Compound F3.14], in [1], the potency entry is given as “high”. The “inhibition of cancer cell proliferation” value in [2] is given as “effectively inhibits”. Besides, the solubility entry in series [3] was “very good”. Besides, the toxicities entry in series [4] is given as “very low”. Further, the intrinsic clearance result in series [5] is given as “moderate”. Also, the “binding to FRS2” value at FRS2 is “confirmed the binding of F3.14 to FRS2”. Also, in [6], the “inhibition of cancer cell invasion” value is given as “effectively inhibits”. For the same molecule, the tolerability entry in the series “In vivo pharmacokinetics” is on record as “well-tolerated”. In addition, the “effect on FGF signal transduction (phosphorylation of downstream effectors)” value in the series with FGF signaling pathway is “inhibits the FGF signal transduction by inhibiting the phosphorylation of the downstream effectors”. Besides, the permeability result in [7] was “good”.
